For nine molecules, TGI results are on record in PubChem BioAssay (NCI).

Structures are written as SMILES.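 In this assay, cells in 96-well plates receive the compound at five concentrations for 48 hours. Endpoints are linearly interpolated between the surrounding concentrations. TGI: total growth inhibition.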

Some test systems named below: A549 NSCLC; ACHN renal; HL-60(TB) leukemia; NCI-H522 lung; OVCAR-4 ovarian; OVCAR-8 ovarian; SK-MEL-28 melanoma; SK-MEL-5 melanoma; SR leukemia; TK-10 renal; UO-31 renal; HOP-92 NSCLC; RPMI-8226 leukemia; SN12C renal; MDA-MB-231 breast; MDA-MB-435.
What all share (test): NCI tumour cell line growth inhibition, 48 h

Regarding `CCN1CCC(O)(/C=C/c2ccc(Cl)cc2)C(C(=O)/C=C/c2ccc(Cl)cc2)C1` (configuration not stated), the TGI is 92.5 µM with A549 NSCLC; more than 100 µM in the experiment on ACHN renal; more than 100 µM in the experiment on HL-60(TB) leukemia; 81.5 µM in the experiment on NCI-H522 lung; 96 µM with OVCAR-4 ovarian; 61.3 µM in the experiment with OVCAR-8 ovarian. Moreover, the TGI in the experiment on SK-MEL-28 melanoma was 57 µM; in the experiment with SK-MEL-5 melanoma, 28.3 µM; in the experiment on SR leukemia it was more than 100 µM; with TK-10 renal, more than 100 µM; in the experiment on UO-31 renal, more than 100 µM.
Consider `Cc1nc2c(s/c(=N\N)n2-c2ccccc2)c(=O)n1C`, for which the TGI in the experiment on A549 NSCLC, in the experiment on ACHN renal, with HL-60(TB) leukemia, in the experiment with HOP-92 NSCLC, in the experiment with NCI-H522 lung and in the experiment with OVCAR-4 ovarian was more than 100 µM each time. For the same molecule, the TGI in the experiment with OVCAR-8 ovarian, in the experiment with RPMI-8226 leukemia, with SK-MEL-28 melanoma, with SK-MEL-5 melanoma, in the experiment on SN12C renal and in the experiment with SR leukemia was more than 100 µM in each case. Besides, the TGI with TK-10 renal and in the experiment on UO-31 renal was more than 100 µM in each case.
As to `Cc1ccc(C(=O)C(C)N)cc1C` (configuration not stated), the TGI in the experiment with A549 NSCLC, with ACHN renal, with NCI-H522 lung, in the experiment on OVCAR-4 ovarian, in the experiment with OVCAR-8 ovarian and in the experiment on RPMI-8226 leukemia was more than 100 µM in each case. Moreover, the TGI in the experiment with SK-MEL-28 melanoma, in the experiment on SK-MEL-5 melanoma, in the experiment on SN12C renal, with TK-10 renal and in the experiment with UO-31 renal was more than 100 µM each time.
As for `C#CC1(O)CC(c2ccccc2)N(C)C(c2ccccc2)C1` (configuration not stated), the TGI in the experiment on A549 NSCLC, in the experiment with ACHN renal, in the experiment with HL-60(TB) leukemia, with HOP-92 NSCLC, in the experiment with NCI-H522 lung and in the experiment with OVCAR-4 ovarian was more than 100 µM throughout. Besides, the TGI in the experiment with OVCAR-8 ovarian, with SK-MEL-28 melanoma, in the experiment with SK-MEL-5 melanoma, in the experiment on SN12C renal, in the experiment with TK-10 renal and in the experiment on UO-31 renal was more than 100 µM in each case.
As for `O=c1[nH]c(Br)nc2c(N3CCCCC3)c[nH]c12`, the TGI with A549 NSCLC is more than 100 µM; with ACHN renal it was more than 100 µM; in the experiment with HL-60(TB) leukemia, more than 100 µM; in the experiment with HOP-92 NSCLC, more than 100 µM; with NCI-H522 lung, 81.8 µM; in the experiment on OVCAR-4 ovarian, more than 100 µM. The TGI with OVCAR-8 ovarian, in the experiment on RPMI-8226 leukemia, in the experiment with SK-MEL-28 melanoma, in the experiment on SK-MEL-5 melanoma, with SN12C renal and with TK-10 renal was more than 100 µM in each case. Besides, the TGI with UO-31 renal was more than 100 µM.
Turning to `COc1cc2c(cc1OC)C(=O)N1CCCC1C(=O)S2` (configuration not stated), the TGI in the experiment on A549 NSCLC, in the experiment with ACHN renal, with HL-60(TB) leukemia, with HOP-92 NSCLC, in the experiment on NCI-H522 lung and in the experiment on OVCAR-8 ovarian was more than 100 µM in each case. Besides, the TGI in the experiment on RPMI-8226 leukemia, with SK-MEL-28 melanoma, in the experiment with SK-MEL-5 melanoma, with SN12C renal, in the experiment with SR leukemia and in the experiment with TK-10 renal was more than 100 µM in each case. The molecule further gave a TGI in the experiment with UO-31 renal of more than 100 µM.
Turning to `COC1=CC(=O)C2C(C1=O)[C@@H]1c3ccccc3OC[C@H]21` (some centres not stated), the TGI in the experiment with A549 NSCLC, in the experiment on ACHN renal, in the experiment on HL-60(TB) leukemia, in the experiment with HOP-92 NSCLC, with NCI-H522 lung and in the experiment with OVCAR-4 ovarian was more than 100 µM throughout. Besides, the TGI in the experiment on OVCAR-8 ovarian, in the experiment on RPMI-8226 leukemia, with SK-MEL-28 melanoma, in the experiment with SK-MEL-5 melanoma, in the experiment on TK-10 renal and in the experiment on UO-31 renal was more than 100 µM throughout.
Regarding `CC1CC/C(=C\c2ccc(F)cc2)C2=C1C(c1ccc(F)cc1)n1c(s/c(=C\c3ccc(Cl)cc3)c1=O)=N2` (configuration not stated), the TGI in the experiment on A549 NSCLC, in the experiment on ACHN renal, in the experiment with HL-60(TB) leukemia, in the experiment on HOP-92 NSCLC, with MDA-MB-231 breast and with MDA-MB-435 was more than 100 µM each time. Also, the TGI in the experiment on OVCAR-4 ovarian, with OVCAR-8 ovarian, with RPMI-8226 leukemia, in the experiment on SK-MEL-28 melanoma, in the experiment with SK-MEL-5 melanoma and in the experiment with SN12C renal was more than 100 µM throughout. The molecule further gave a TGI with TK-10 renal of more than 100 µM.
For the molecule `Nc1nc2c(ncn2CC(CO)CC(c2ccccc2)P(=O)(O)O)c(=O)[nH]1` (configuration not stated), the TGI in the experiment with A549 NSCLC, with ACHN renal, with HL-60(TB) leukemia, in the experiment with HOP-92 NSCLC, in the experiment with NCI-H522 lung and in the experiment on OVCAR-8 ovarian was more than 100 µM throughout. Moreover, the TGI in the experiment on RPMI-8226 leukemia, with SK-MEL-28 melanoma, in the experiment on SK-MEL-5 melanoma, with SN12C renal, in the experiment on SR leukemia and with TK-10 renal was more than 100 µM throughout. Moreover, the TGI in the experiment on UO-31 renal is more than 100 µM.
